Experimental data as given in article PMC12117998, “First Steps toward the Design of Peptides that Influence the Intracellular Palmitoylation Machinery” (Chembiochem, 2025).
No end group written: not given here.

Key:
HeLa cells = assay: Co‐localization studies (confocal microscopy, PCC and MOC); type: cell-based; details: 2 h, 5 μM CF‐DC‐2, CellLight ER‐RFP, mean ± SD of ≥37 cells, n = 2
Procedure: HeLa cells (30,000–40,000) were seeded into an 8‐well ibidi. For lysosomal and lipid droplet analysis, cells were treated for 30 min with 5 μM of CF‐labeled peptide combined with either 100 nM LysoTracker Red DND‐99 (Invitrogen) or a 1:1000 solution of distyryl Bodipy lipid droplet stain synthesized and kindly provided by Engelhardt et al.^[ [67] ^] diluted in serum‐free media under standard growth conditions. For Golgi analysis, cells were treated for 2 h with 5 μM CF‐labeled peptide under standard growth conditions. For the last 30 min of the incubation period, 1:100 BODIPY TR ceramide complexed to bovine serum albumine (BSA) (Invitrogen) was directly diluted into the well and incubated for the last 30 min together with the peptide. For ER staining, CellLight ER‐RFP, BacMam 2.0 (Invitrogen), was added to the cells and incubated overnight under standard growth conditions. The next day, the cells were treated for 2 h with 5 μM CF‐labeled peptides as described earlier. After the peptide and stain incubation, cells were washed three to four times with serum‐free medium. […] Pearson and Manders’ Coefficients were calculated using the JaCoP analysis tool.^[ [68] ^] For Golgi analysis, no PCC or MOC was determined as the unedited images contained a strong background signal.

MCF‐10 A breast spheroid = assay: Confocal time‐lapse imaging of spheroids; type: cell-based, human; details: 10‐day‐old MCF‐10 A spheroids, 10 μM CF‐labeled peptide, imaged every 45 s for 20 min, n ≥ 2 (Figure 7)
Procedure: Spheroids from single MCF10‐A cells were generated for 10 days as described in ref. [66]. For further analyses, spheroids were isolated from EHS matrix through incubation in 2 mL ice‐cold cell recovery solution (BD Biosciences) for 30 min (4 °C). Next, spheroids were washed with fresh EGF‐free medium and individually picked under a stereo microscope for seeding onto 35 mm cell culture dishes with microscopic glass bottoms (Cover Slip, 24 × 24 mm, #1.5 HP, Menzel‐Gläser). Spheroids adhered to glass substrates for 15 min (RT) and were subsequently covered with 0.9 mL fresh EGF‐free growth medium.
Live‐cell imaging was performed at 37 °C and 5% CO2 (cell incubator XL, Zeiss, Germany) with an inverse confocal laser scanning microscope (LSM880 with Airyscan detector) that used a 40x LD C‐Apochromat water immersion objective (NA 1.1, Zeiss). Before addition of peptides, control images were taken. Subsequently, peptide was added to a final concentration of 10 μM and spheroids immediately imaged every 45 s for 20 min. The observed plane was at the equatorial plane of a spheroid, where the diameter was largest. Images were taken with Fast Airyscan and subsequent processing using the ZEN 2.3 black software (Zeiss). Z‐stacks were taken right after the time series in 1 μm steps with the same microscopic settings.

mEGFP‐HRas = assay: Fluorescence microscopy of mEGFP‐HRas localization; type: cell-based; details: HeLa mEGFP‐HRas cells, doxycycline-induced, 100 μM peptide, 6 h, n = 3 (Figure 8A)
Text: mEGFP‐HRas was amplified from a plasmid gifted from Karel Svoboda^[ [69] ^] (Addgene plasmid # 18662) using the primers 5′‐gcgGGTACCgccaccatggtgagcaagg‐3′ and 5′‐gcgGCGGCCGCtcaggagagcacacactt‐3′. KpnI and NotI restriction sites (capital letter) were used and the construct was cloned into the pcDNA5 FRT‐TO vector to generate an inducible T‐REx‐HeLa cell line using the Flp‐In T‐REx System (Invitrogen). The plasmid was verified by sequencing. The construct was co‐transfected together with the pOG44 vector using the FuGENE HD transfection reagent (Promega). Positive clones were selected with DMEM medium supplemented with 10% FCS, 500 μg ml^−1 penicillin/streptomycin 100 μg ml^−1 hygromycin and 10 μg ml^−1 blasticidin and verified by fluorescence microscopy and immunoblot.
A total of 35,000 HeLa mEGFP‐HRas cells were seeded into an 8‐well plate. Cells were induced with […] ml^−1 doxycycline and incubated for around 15 h under standard growth conditions. Afterward, cells were treated for 6 h with 100 μM peptide diluted in serum‐free medium. And, 10 min prior to the end of the incubation time, the Hoechst 33342 nuclear dye was added. Cells were washed with serum‐free media. Finally, complete medium was added and cells were imaged on the UltraView VoX Spinning Disk Confocal Microscope (Perkin Elmer) on a 60X oil objective at 37 °C and 5% CO2. Images were cropped and processed using Fiji.

GLRKRLRKFRNKKMDHHCPW-NH2 [DC‐2, CPP sC18* fused to the DHHC motif derived from ZDHHC2/3/6/7/15/16/20]
Mander's overlap coefficient (MOC), ER (HeLa cells): 0.60 ± 0.20 | Pearson correlation coefficient (PCC), ER (HeLa cells): 0.37 ± 0.10 | infiltration of basement membrane (BM)‐covered spheroids (MCF‐10 A breast spheroid): efficiently surpassed the BM and translocated into many cells | HRas localization (mEGFP‐HRas): altered HRas pattern
